Reference: US12102690B2, “Preparation method and application of biomimetic nano-protectant for detoxifying dox-induced cardiac and systemic toxicity” (priority 2021, dated 2024)

Assays:
[1] = tested on: TC1 cells subcutaneous transplanted tumor model of cervical cancer; assay: Tumor inhibition in subcutaneous transplanted tumor model of cervical cancer; format: in vivo; details: Day24, TC1 tumor-bearing B6 rats
Experimental: (§1) When the tumor volume reached 70-80 mm^3, the NPs+DOX group, the DOX group alone and the NC group were performed respectively; and then changes in size of tumor tissues and the changes in weight of B6 rats were observed and measured from Day0 to Day24. […] However, the volume of tumor tissues in the NC group increases to about 200 times of the initial volume on Day24 (FIG. 20A). […] Meanwhile, due to the rapid growth of tumor tissues in the NC group, the weight of NC group is increased greatly (FIG. 20B).

[2] = Change in weight of tumor-bearing B6 rats; format: in vivo; details: Day0 to Day24, TC1 tumor-bearing B6 rats
Experimental: as §1

H9C2 myocardial cells = assay: Survival rate of myocardial cells with CCK-8 reagent after IC50 dose of DOX; format: cell-based, rat; details: DOX group alone, 24 h
Experimental: Different doses of biomimetic nano-protectant DNA&Pro@RBCM-PCM/KALA were added into H9C2 myocardial cells for incubation for 4 h; then, IC50 (50% Inhibitory Concentration) dose of DOX was added; the survival rate of H9C2 myocardial cells was detected with a CCK-8 reagent after 24 h; and a DOX group alone (with a DNA concentration of 0) and a treatment-free NC group (Negative Control) were set as experimental control groups. […] To further describe the protection mechanism of the biomimetic nano-protectant PCM/KALA-RBCM@DNA&Pro, in the invention, a dose of the biomimetic nano-protectant PCM/KALA-RBCM@DNA&Pr (NPs) is determined for protecting the damage of the IC50 dose of DOX to the H9C2 myocardial cells, while three important apoptosis pathway signal molecules (including Bax, Bcl2 and Caspase-3) are selected for Western Blot (WB) test (see FIG. 12).

## COc1cccc2c1C(=O)c1c(O)c3c(c(O)c1C2=O)C[C@@](O)(C(=O)CO)C[C@@H]3O[C@H]1C[C@H](N)[C@H](O)[C@H](C)O1 [DOX, doxorubicin]
[1]
  tumor volume at the end of Day24 relative to the initial volume: about 15 times of the initial volume
[2]
  change in weight of B6 rats: sudden loss of weight
H9C2 myocardial cells
  survival rate of H9C2 cells: about 50%
